Measurements as given in PubChem BioAssay AID330 (DTP/NCI, 2004).
Several values for one entry are separate records, joined by “and”; a condition that tells them apart may be missing. Equal values may be shown once. Inconclusive results and toxic doses are left out. Peptide text beside a SMILES is read from it.

Tested on: P388 leukemia ip, CD2F1 mice, survival T/C
Assay: NCI In Vivo Anticancer Drug Screen. Data for tumor model P388 Leukemia (intraperitoneal) in CD2F1 (CDF1) mice
Details: endpoint: median survival time, higher = longer survival
Outline: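 Mice carrying the transplanted tumor received test compound or vehicle. Survival was recorded in each group, and the value is the treated-group measurement divided by that of the vehicle-treated control group.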

[1] = dose: 50.0 mg/kg/injection, schedule: Q01DX005 (ip), vehicle: saline with Tween-80
[2] = dose: 100.0 mg/kg/injection, schedule: Q01DX005 (ip), vehicle: saline with Tween-80
[3] = dose: 200.0 mg/kg/injection, schedule: Q01DX005 (ip), vehicle: saline with Tween-80
[4] = dose: 60.0 mg/kg/injection, schedule: Q01DX005 (ip), vehicle: saline with Tween-80
[5] = dose: 120.0 mg/kg/injection, schedule: Q01DX005 (ip), vehicle: saline with Tween-80
[6] = dose: 240.0 mg/kg/injection, schedule: Q01DX005 (ip), vehicle: saline with Tween-80
[7] = dose: 50.0 mg/kg/injection, schedule: Q01DX009 (ip), vehicle: saline
[8] = dose: 60.0 mg/kg/injection, schedule: Q01DX005 (ip), vehicle: Klucel (hydroxypropylcellulose) (HPC)
[9] = dose: 120.0 mg/kg/injection, schedule: Q01DX005 (ip), vehicle: Klucel (hydroxypropylcellulose) (HPC)
[10] = dose: 240.0 mg/kg/injection, schedule: Q01DX005 (ip), vehicle: Klucel (hydroxypropylcellulose) (HPC)
[11] = dose: 100.0 mg/kg/injection, schedule: Q01DX001 (ip), vehicle: saline with Tween-80
[12] = dose: 50.0 mg/kg/injection, schedule: Q01DX005 (ip), vehicle: saline
[13] = dose: 100.0 mg/kg/injection, schedule: Q01DX005 (ip), vehicle: saline
[14] = dose: 200.0 mg/kg/injection, schedule: Q01DX005 (ip), vehicle: saline
[15] = dose: 25.0 mg/kg/injection, schedule: Q04DX003 (ip), vehicle: saline with Tween-80
[16] = dose: 50.0 mg/kg/injection, schedule: Q04DX003 (ip), vehicle: saline with Tween-80
[17] = dose: 100.0 mg/kg/injection, schedule: Q04DX003 (ip), vehicle: saline with Tween-80
[18] = dose: 200.0 mg/kg/injection, schedule: Q04DX003 (ip), vehicle: saline with Tween-80
[19] = dose: 400.0 mg/kg/injection, schedule: Q04DX003 (ip), vehicle: saline with Tween-80
[20] = dose: 100.0 mg/kg/injection, schedule: Q01DX009 (ip), vehicle: saline with Tween-80
[21] = dose: 200.0 mg/kg/injection, schedule: Q01DX009 (ip), vehicle: saline with Tween-80
[22] = dose: 50.0 mg/kg/injection, schedule: Q01DX009 (ip), vehicle: saline with Tween-80

## CC1=C(C)CN(c2ccnc3cc(Cl)ccc23)OC1
[1]
  T/C: 102 % of control
[2]
  T/C: 97 % of control
[3]
  T/C: 97 % of control

## O/C(=C/c1ncnc2ccccc12)c1cccc(Cl)c1
[4]
  T/C: 102 % of control
[5]
  T/C: 92 % of control

## CC(=O)Nc1ccccc1C(=O)C(=O)Nc1ccccc1C(=O)NN
[4]
  T/C: 106 % of control
[5]
  T/C: 89 % of control
[6]
  T/C: 87 % of control

## COc1cccc2c1OC(=O)NC2O (configuration not stated)
dose: 25.0 mg/kg/injection, schedule: Q01DX005 (ip), vehicle: distilled water + Tween-80
  T/C: 103 % of control
dose: 50.0 mg/kg/injection, schedule: Q01DX005 (ip), vehicle: distilled water + Tween-80
  T/C: 107 % of control
[1]
  T/C: 102 % of control
dose: 100.0 mg/kg/injection, schedule: Q01DX005 (ip), vehicle: distilled water + Tween-80
  T/C: 121 % of control
[2]
  T/C: 122 % of control
dose: 200.0 mg/kg/injection, schedule: Q01DX005 (ip), vehicle: distilled water + Tween-80
  T/C: 110 % of control
[3]
  T/C: 112 % of control

## COC(=O)NC(=O)CCC(=O)O
dose: 12.5 mg/kg/injection, schedule: Q01DX009 (ip), vehicle: saline
  T/C: 104 % of control
dose: 25.0 mg/kg/injection, schedule: Q01DX009 (ip), vehicle: saline
  T/C: 97 % of control
[7]
  T/C: 100 % of control and 103 % of control

## C=C1N=NN(c2ccc(C)cc2)C1N1CCOCC1 (configuration not stated)
[8]
  T/C: 93 % of control
[9]
  T/C: 99 % of control
[10]
  T/C: 90 % of control

## c1ccc(CCN2CCC3(CC2)COCc2ccccc23)cc1
[11]
  T/C: 96 % of control

## CC(Cl)(c1ccccc1)C1OCCO1 (configuration not stated)
[4]
  T/C: 100 % of control
[5]
  T/C: 101 % of control
[6]
  T/C: 102 % of control

## CC1CN=C(NS(=O)(=O)c2ccccc2)N1 (configuration not stated)
[7]
  T/C: 101 % of control
dose: 100.0 mg/kg/injection, schedule: Q01DX009 (ip), vehicle: saline
  T/C: 93 % of control
dose: 200.0 mg/kg/injection, schedule: Q01DX009 (ip), vehicle: saline
  T/C: 92 % of control

## NCC(=O)NCC(=O)O (H-Gly-Gly-OH)
[12]
  T/C: 100 % of control
[13]
  T/C: 104 % of control
[14]
  T/C: 100 % of control

## COc1ccc(OC)c(C(/C=N/O)OC)c1 (configuration not stated)
[15]
  T/C: 98 % of control and 100 % of control
[16]
  T/C: 98 % of control and 94 % of control
[17]
  T/C: 99 % of control and 87 % of control
[18]
  T/C: 103 % of control and 94 % of control
[19]
  T/C: 99 % of control

## O=C1c2cccc3cc([N+](=O)[O-])cc(c23)C(=O)N1CCCNCCNCCCN1C(=O)c2cccc3cc([N+](=O)[O-])cc(c23)C1=O
[1]
  T/C: 92 % of control
[2]
  T/C: 154 % of control

## CCN(CC)CCCC(C)Nc1c(C)cnc2cc(Cl)c(C)cc12 (configuration not stated)
[12]
  T/C: 103 % of control
[13]
  T/C: 100 % of control

## COc1ccc(OCC(O)CN2CCN(c3ccc(Cl)cc3)CC2)cc1 (configuration not stated)
[20]
  T/C: 99 % of control
dose: 100.0 mg/kg/injection, schedule: Q04DX003 (ip), vehicle: Klucel (hydroxypropylcellulose) (HPC)
  T/C: 100 % of control
[21]
  T/C: 101 % of control
dose: 200.0 mg/kg/injection, schedule: Q04DX003 (ip), vehicle: Klucel (hydroxypropylcellulose) (HPC)
  T/C: 100 % of control
dose: 400.0 mg/kg/injection, schedule: Q01DX009 (ip), vehicle: saline with Tween-80
  T/C: 92 % of control

## O=S(=O)(O)C1=CC(=N/Br)/C=CC/1=N\Br
[12]
  T/C: 118 % of control and 119 % of control
[13]
  T/C: 115 % of control and 121 % of control
[14]
  T/C: 118 % of control and 121 % of control

## O=c1[nH]cnc2cc(N3CCOCC3)c([N+](=O)[O-])cc12
[16]
  T/C: 105 % of control
[17]
  T/C: 100 % of control
[18]
  T/C: 100 % of control

## CN(C)/C=C/C=C1\CCCC1=O
dose: 50.0 mg/kg/injection, schedule: Q04DX002 (ip), vehicle: saline with Tween-80
  T/C: 103 % of control
dose: 100.0 mg/kg/injection, schedule: Q04DX002 (ip), vehicle: saline with Tween-80
  T/C: 100 % of control
dose: 200.0 mg/kg/injection, schedule: Q04DX002 (ip), vehicle: saline with Tween-80
  T/C: 108 % of control

## Cc1ccc(-c2nc3ncnc(N)c3[nH]2)cc1
dose: 6.25 mg/kg/injection, schedule: Q04DX003 (ip), vehicle: saline with Tween-80
  T/C: 100 % of control
dose: 12.5 mg/kg/injection, schedule: Q04DX003 (ip), vehicle: saline with Tween-80
  T/C: 100 % of control
[15]
  T/C: 100 % of control and 107 % of control and 114 % of control
[16]
  T/C: 102 % of control and 113 % of control
[17]
  T/C: 108 % of control and 124 % of control
[18]
  T/C: 116 % of control

## Cc1cc(=O)oc2cc(NC(=O)C(CCCN=C(N)N)NC(=O)OCc3ccccc3)ccc12 (configuration not stated)
[1]
  T/C: 97 % of control
[2]
  T/C: 98 % of control
[3]
  T/C: 94 % of control

## O=C1CSC(c2cc([N+](=O)[O-])ccc2Cl)N1c1nncs1 (configuration not stated)
[8]
  T/C: 108 % of control
[9]
  T/C: 105 % of control
[10]
  T/C: 98 % of control

## CCOC(=O)/N=[N+](\[O-])c1ccc(Cl)cc1
dose: 100.0 mg/kg/injection, schedule: Q01DX001 (ip), vehicle: Klucel (hydroxypropylcellulose) (HPC)
  T/C: 100 % of control

## CCSc1nc2ccc(Nn3nnnc3-c3ccccc3)cc2s1
dose: 1.56 mg/kg/injection, schedule: Q01DX009 (ip), vehicle: Klucel (hydroxypropylcellulose) (HPC)
  T/C: 105 % of control and 94 % of control
dose: 3.12 mg/kg/injection, schedule: Q01DX009 (ip), vehicle: Klucel (hydroxypropylcellulose) (HPC)
  T/C: 99 % of control and 100 % of control
dose: 6.25 mg/kg/injection, schedule: Q01DX009 (ip), vehicle: Klucel (hydroxypropylcellulose) (HPC)
  T/C: 93 % of control
dose: 12.5 mg/kg/injection, schedule: Q01DX009 (ip), vehicle: Klucel (hydroxypropylcellulose) (HPC)
  T/C: 89 % of control and 95 % of control
dose: 50.0 mg/kg/injection, schedule: Q01DX009 (ip), vehicle: Klucel (hydroxypropylcellulose) (HPC)
  T/C: 93 % of control
dose: 200.0 mg/kg/injection, schedule: Q01DX009 (ip), vehicle: Klucel (hydroxypropylcellulose) (HPC)
  T/C: 92 % of control

## COc1ccc(NC(=O)C(c2ccccc2)c2ccccc2)cc1
[17]
  T/C: 90 % of control
[18]
  T/C: 95 % of control
[19]
  T/C: 100 % of control

## CCCCCCC(=O)/C=C/c1cc(OC)c(OC)c(OC)c1
[22]
  T/C: 101 % of control
[20]
  T/C: 96 % of control
[21]
  T/C: 92 % of control

## CCC(c1ccc(OC)cc1)C(NCC(=O)NNC(=S)Nc1ccccc1)c1ccc(OC)cc1 (configuration not stated)
[11]
  T/C: 92 % of control
dose: 200.0 mg/kg/injection, schedule: Q01DX001 (ip), vehicle: saline with Tween-80
  T/C: 101 % of control
dose: 400.0 mg/kg/injection, schedule: Q01DX001 (ip), vehicle: saline with Tween-80
  T/C: 108 % of control

## CCCCCCCCCCCCCCCCCCCCCCCCCCCCCCO
dose: 25.0 mg/kg/injection, schedule: Q01DX009 (ip), vehicle: saline with Tween-80
  T/C: 86 % of control
[22]
  T/C: 101 % of control
[20]
  T/C: 96 % of control
[21]
  T/C: 92 % of control

## CC1C(c2ccccc2)NC(c2ccccc2)CC1(N)C#N (configuration not stated)
dose: 50.0 mg/kg/injection, schedule: Q01DX005 (ip), vehicle: Klucel (hydroxypropylcellulose) (HPC)
  T/C: 95 % of control
dose: 100.0 mg/kg/injection, schedule: Q01DX005 (ip), vehicle: Klucel (hydroxypropylcellulose) (HPC)
  T/C: 95 % of control
dose: 200.0 mg/kg/injection, schedule: Q01DX005 (ip), vehicle: Klucel (hydroxypropylcellulose) (HPC)
  T/C: 93 % of control

## CC1CCOC(C)O1 (configuration not stated)
dose: 100.0 mg/kg/injection, schedule: Q04DX003 (ip), vehicle: saline
  T/C: 100 % of control
dose: 200.0 mg/kg/injection, schedule: Q04DX003 (ip), vehicle: saline
  T/C: 104 % of control
dose: 400.0 mg/kg/injection, schedule: Q04DX003 (ip), vehicle: saline
  T/C: 101 % of control
